Source: ChEMBL document CHEMBL3611994, “Discovery of 4-benzoylamino-N-(prop-2-yn-1-yl)benzamides as novel microRNA-21 inhibitors” (Bioorg Med Chem, 2015)
Activity calls are given as the source filed them. No cut-off for these calls is given here.

What was measured:
Nucleic Acid [1] = assay: Inhibition of microRNA-21 in human HeLa cells assessed as reduction in microRNA-21 expression at 10 uM incubated for 24 hrs by stem-loop RT-PCR method; type: cell-based
Nucleic Acid [2] = assay: Inhibition of microRNA-152 in human HeLa cells assessed as reduction in microRNA-21 expression at 10 uM incubated for 24 hrs by RT-qPCR method; type: cell-based
U-87 MG [3] = assay: Inhibition of cell proliferation of human U87MG cells assessed as induction of retardation of cell proliferation at 10 uM incubated for 48 hrs by CFSE staining based FACS method; type: functional; conditions: U-87MG ATCC
U-87 MG [4] = assay: Induction of apoptosis in human U87MG cells assessed as early apoptotic cells level at 10 uM incubated for 48 hrs by Annexin V-FITC and propidium iodide staining based flow cytometry (reference value: 2%); type: functional, U-87MG ATCC
HeLa [5] = assay: Induction of apoptosis in human HeLa cells assessed as viable cells level at 10 uM incubated for 48 hrs by Annexin V-FITC and propidium iodide staining based flow cytometry (reference value: 93.7%); type: functional
HeLa [6] = assay: Induction of apoptosis in human HeLa cells assessed as necrotic cells level at 10 uM incubated for 48 hrs in presence of 50 uM H2O2 by Annexin V-FITC and propidium iodide staining based flow cytometry (reference value: 1.2%); type: functional
U-87 MG [7] = assay: Induction of apoptosis in human U87MG cells assessed as viable cells level at 10 uM incubated for 48 hrs by Annexin V-FITC and propidium iodide staining based flow cytometry (reference value: 94.1%); type: functional, U-87MG ATCC
Nucleic Acid [8] = assay: Inhibition of microRNA-21 in human HeLa cells assessed as increase in PDCD4 protein expression at 10 uM incubated for 48 hrs by Western blot method; type: cell-based
U-87 MG [9] = assay: Induction of apoptosis in human U87MG cells assessed as necrotic cells level at 10 uM incubated for 48 hrs in presence of 50 uM H2O2 by Annexin V-FITC and propidium iodide staining based flow cytometry (reference value: 1.3%); type: functional, U-87MG ATCC
HeLa [10] = assay: Induction of apoptosis in human HeLa cells assessed as early apoptotic cells level at 10 uM incubated for 48 hrs by Annexin V-FITC and propidium iodide staining based flow cytometry (reference value: 2.9%); type: functional
HeLa [11] = assay: Inhibition of let-7a miRNA in human HeLa cells assessed as reduction in microRNA-21 expression at 10 uM incubated for 24 hrs by RT-qPCR method; type: cell-based
HeLa [12] = assay: Effect on universal miRNA biosynthesis pathway-related gene expression in human HeLa assessed as XPO5 gene expression at 10 uM incubated for 24 hrs by RT-qPCR method; type: cell-based
HeLa [13] = assay: Effect on universal miRNA biosynthesis pathway-related gene expression in human HeLa assessed as DROSHA gene expression at 10 uM incubated for 24 hrs by RT-qPCR method; type: cell-based
HeLa [14] = assay: Effect on universal miRNA biosynthesis pathway-related gene expression in human HeLa assessed as DGCR8 gene expression at 10 uM incubated for 24 hrs by RT-qPCR method; type: cell-based
Nucleic Acid [15] = assay: Inhibition of microRNA-143 in human HeLa cells assessed as reduction in microRNA-21 expression at 10 uM incubated for 24 hrs by RT-qPCR method; type: cell-based
HeLa [16] = assay: Inhibition of cell proliferation of human HeLa cells assessed as induction of retardation of cell proliferation at 10 uM incubated for 48 hrs by CFSE staining based FACS method; type: functional
Nucleic Acid [17] = assay: Inhibition of microRNA-25 in human HeLa cells assessed as reduction in microRNA-21 expression at 10 uM incubated for 24 hrs by RT-qPCR method; type: cell-based
U-87 MG [18] = assay: Inhibition of cell proliferation of human U87MG cells assessed as time required for cell doubling by measuring mean fluorescence intensity at 10 uM incubated for 48 hrs in presence of 50 uM H2O2 by CFSE staining based FACS method; type: functional; conditions: U-87MG ATCC
HeLa [19] = assay: Induction of apoptosis in human HeLa cells assessed as early apoptotic cells level at 10 uM incubated for 48 hrs in presence of 50 uM H2O2 by Annexin V-FITC and propidium iodide staining based flow cytometry (reference value: 2.9%); type: functional
HeLa [20] = assay: Induction of apoptosis in human HeLa cells assessed as late apoptotic cells level at 10 uM incubated for 48 hrs by Annexin V-FITC and propidium iodide staining based flow cytometry (reference value: 2.2%); type: functional
HeLa [21] = assay: Induction of apoptosis in human HeLa cells assessed as necrotic cells level at 10 uM incubated for 48 hrs by Annexin V-FITC and propidium iodide staining based flow cytometry (reference value: 1.2%); type: functional
HeLa [22] = assay: Induction of apoptosis in human HeLa cells assessed as viable cells level at 10 uM incubated for 48 hrs in presence of 50 uM H2O2 by Annexin V-FITC and propidium iodide staining based flow cytometry (reference value: 93.7%); type: functional
HeLa [23] = assay: Effect on universal miRNA biosynthesis pathway-related gene expression in human HeLa assessed as AGO2 gene expression at 10 uM incubated for 24 hrs by RT-qPCR method; type: cell-based
Nucleic Acid [24] = assay: Inhibition of microRNA-146 in human HeLa cells assessed as reduction in microRNA-21 expression at 10 uM incubated for 24 hrs by RT-qPCR method; type: cell-based
U-87 MG [25] = assay: Induction of apoptosis in human U87MG cells assessed as late apoptotic cells level at 10 uM incubated for 48 hrs by Annexin V-FITC and propidium iodide staining based flow cytometry (reference value: 2.6%); type: functional, U-87MG ATCC
HeLa [26] = assay: Effect on universal miRNA biosynthesis pathway-related gene expression in human HeLa assessed as TARBP2 gene expression at 10 uM incubated for 24 hrs by RT-qPCR method; type: ADME, cell-based
U-87 MG [27] = assay: Induction of apoptosis in human U87MG cells assessed as necrotic cells level at 10 uM incubated for 48 hrs by Annexin V-FITC and propidium iodide staining based flow cytometry (reference value: 1.3%); type: functional, U-87MG ATCC
HeLa [28] = assay: Effect on universal miRNA biosynthesis pathway-related gene expression in human HeLa assessed as DICER1 gene expression at 10 uM incubated for 24 hrs by RT-qPCR method; type: cell-based
HeLa [29] = assay: Inhibition of cell proliferation of human HeLa cells assessed as induction of retardation of cell proliferation at 10 uM incubated for 48 hrs in presence of 50 uM H2O2 by CFSE staining based FACS method; type: functional
U-87 MG [30] = assay: Inhibition of cell proliferation of human U87MG cells assessed as time required for cell doubling by measuring mean fluorescence intensity at 10 uM incubated for 48 hrs by CFSE staining based FACS method; type: functional; conditions: U-87MG ATCC
Nucleic Acid [31] = assay: Inhibition of microRNA-195 in human HeLa cells assessed as reduction in microRNA-21 expression at 10 uM incubated for 24 hrs by RT-qPCR method; type: cell-based
U-87 MG [32] = assay: Induction of apoptosis in human U87MG cells assessed as early apoptotic cells level at 10 uM incubated for 48 hrs in presence of 50 uM H2O2 by Annexin V-FITC and propidium iodide staining based flow cytometry (reference value: 2%); type: functional, U-87MG ATCC
Nucleic Acid [33] = assay: Inhibition of microRNA-148 in human HeLa cells assessed as reduction in microRNA-21 expression at 10 uM incubated for 24 hrs by RT-qPCR method; type: cell-based
U-87 MG [34] = assay: Inhibition of cell proliferation of human U87MG cells assessed as induction of retardation of cell proliferation at 10 uM incubated for 48 hrs in presence of 50 uM H2O2 by CFSE staining based FACS method; type: functional; conditions: U-87MG ATCC
HeLa [35] = assay: Induction of apoptosis in human HeLa cells assessed as late apoptotic cells level at 10 uM incubated for 48 hrs in presence of 50 uM H2O2 by Annexin V-FITC and propidium iodide staining based flow cytometry (reference value: 2.2%); type: functional
U-87 MG [36] = assay: Induction of apoptosis in human U87MG cells assessed as viable cells level at 10 uM incubated for 48 hrs in presence of 50 uM H2O2 by Annexin V-FITC and propidium iodide staining based flow cytometry (reference value: 94.1%); type: functional, U-87MG ATCC
Nucleic Acid [37] = assay: Inhibition of microRNA-26 in human HeLa cells assessed as reduction in microRNA-21 expression at 10 uM incubated for 24 hrs by RT-qPCR method; type: cell-based
Nucleic Acid [38] = assay: Inhibition of microRNA-126 in human HeLa cells assessed as reduction in microRNA-21 expression at 10 uM incubated for 24 hrs by RT-qPCR method; type: cell-based
U-87 MG [39] = assay: Induction of apoptosis in human U87MG cells assessed as late apoptotic cells level at 10 uM incubated for 48 hrs in presence of 50 uM H2O2 by Annexin V-FITC and propidium iodide staining based flow cytometry (reference value: 2.6%); type: functional, U-87MG ATCC
Nucleic Acid [40] = assay: Inhibition of microRNA-133 in human HeLa cells assessed as reduction in microRNA-21 expression at 10 uM incubated for 24 hrs by RT-qPCR method; type: cell-based
Nucleic Acid [41] = assay: Inhibition of microRNA-145 in human HeLa cells assessed as reduction in microRNA-21 expression at 10 uM incubated for 24 hrs by RT-qPCR method; type: cell-based
Nucleic Acid [42] = assay: Inhibition of microRNA-21 in human HeLa cells assessed as reduction in microRNA-21 expression at 10 uM incubated for 6 to 48 hrs by stem-loop RT-PCR method; type: cell-based
Nucleic Acid [43] = assay: Inhibition of microRNA-21 in human HeLa cells assessed as reduction in microRNA-21 expression at 2.5 to 20 uM incubated for 24 hrs by stem-loop RT-PCR method; type: cell-based

Structure (SMILES): C#CCNC(=O)c1ccc(NC(=O)c2cccc(I)c2)cc1
- inhibition (Nucleic Acid [1]): Active

Structure (SMILES): C#CCNC(=O)c1ccc(NC(=O)c2ccc(OC)cc2OC)cc1
- inhibition (Nucleic Acid [1]): Active

Structure (SMILES): C#CCNC(=O)c1ccc(NC(=O)c2ccccc2Br)cc1
- inhibition (Nucleic Acid [2]): inactive
- inhibition (U-87 MG [3]): Active
- Activity (U-87 MG [4]): 2.3%
- Activity (HeLa [5]): 91.6%
- Activity (HeLa [6]): 4.5%
- Activity (U-87 MG [7]): 91.9%
- inhibition (Nucleic Acid [8]): Active
- Activity (U-87 MG [9]): 3.5%
- Activity (HeLa [10]): 3.5%
- inhibition (HeLa [11]): inactive
- Activity (HeLa [12]): Non-toxic
- Activity (HeLa [13]): Non-toxic
- Activity (HeLa [14]): Non-toxic
- inhibition (Nucleic Acid [15]): inactive
- inhibition (HeLa [16]): Active
- inhibition (Nucleic Acid [17]): inactive
- inhibition (U-87 MG [18]): Active
- Activity (HeLa [19]): 8.9%
- Activity (HeLa [20]): 3.4%
- inhibition (Nucleic Acid [1]): Active
- Activity (HeLa [21]): 1.5%
- Activity (HeLa [22]): 67.5%
- Activity (HeLa [23]): Non-toxic
- inhibition (Nucleic Acid [24]): inactive
- Activity (U-87 MG [25]): 4%
- Activity (HeLa [26]): Non-toxic
- Activity (U-87 MG [27]): 1.7%
- Activity (HeLa [28]): Non-toxic
- inhibition (HeLa [29]): Active
- inhibition (U-87 MG [30]): Active
- inhibition (Nucleic Acid [31]): inactive
- Activity (U-87 MG [32]): 3.9%
- inhibition (Nucleic Acid [33]): inactive
- inhibition (U-87 MG [34]): Active
- Activity (HeLa [35]): 19.1%
- Activity (U-87 MG [36]): 82.4%
- inhibition (Nucleic Acid [37]): inactive
- inhibition (Nucleic Acid [38]): inactive
- Activity (U-87 MG [39]): 10.2%
- inhibition (Nucleic Acid [40]): inactive
- inhibition (Nucleic Acid [41]): inactive
- inhibition (Nucleic Acid [42]): Active
- inhibition (Nucleic Acid [43]): Active

Structure (SMILES): C#CCNC(=O)c1ccc(NC(=O)c2cccnc2)cc1
- inhibition (Nucleic Acid [1]): Active

Structure (SMILES): C#CCNC(=O)c1ccc(NC(=O)c2ccc(OC)c(OCc3ccccc3)c2)cc1
- inhibition (Nucleic Acid [1]): Active

Structure (SMILES): C#CCNC(=O)c1ccc(/N=N/c2ccccc2)cc1
- inhibition (Nucleic Acid [8]): Active
- inhibition (Nucleic Acid [1]): Active

Structure (SMILES): C#CCNC(=O)c1ccc(NC(=O)c2cc(OC)ccc2OC)cc1
- inhibition (Nucleic Acid [1]): Active
